# Data: paper PMC9313812, “The Pseudo‐Natural Product Rhonin Targets RHOGDI” (Angewandte Chemie (International Ed. in English), 2022)
# Legend:
# [1] = test system: Alpl expression in C3H10T1/2 cells; experiment: RT-qPCR of Alpl mRNA; type: cell-based, mouse; conditions: 1.5 μM purmorphamine, 96 h
# Procedure: Supplementary Figure S6 (related to Figure 5). Characterization of compound 7l (Rhonin).
# (a) GLI-responsive reporter gene assay in SHH-LIGHT2 cells. (b) Influence of Rhonin on the expression of Alpl. C3H10T1/2 cells were treated with 1.5 µM purmorphamine and the compounds for 96 h prior to RT-qPCR to detect Alpl mRNA levels. Data were normalzed to Gapdh and Ap3d1 gene levels and are mean values (n = 3) ± SD. (c) Detection of cilia in NIH/3T3 cells. NIH/3T3 cells were cultured in serum reduced (0.5 % FCS) medium for 24 h to induce cilia formation, followed by a pre-treatment of cells with different concentrations of 7l or Vismodegib or DMSO as a control in serum reduced medium. […]
# projections, after previous background subtraction. For quantification, cilia were identified and […]
# Smoothened antibody were measured within these areas. […]
# significances were assessed using an unpaired t-test (confidence interval of 95%) with the […]
# replicates were performed and for each replicate at least 100 cilia per condition were analyzed.
# Reverse transcription- quantitative PCR (RT-qPCR) […]
# DNase I digestion step. The concentration of purified RNA was determined by means of the […]
# QuantiTect Reverse Transcription Kit (Qiagen) according to the manufacturer’s protocol. […]
# determined by means of quantitative RT-PCR using the QuantiFast SYBR Green PCR Kit […]
# [2] = biological target: T1, RHOGDI1-RAC1 interaction (Homo sapiens, UniProt P52565); experiment: Fluorescence polarization: titration of TAMRA-GDP-bound RAC1 with RHOGDI1 in presence of compound; type: binding; conditions: Cheng-Prusoff equation using data from Figure S6f
# T1 construct: GST; made in house; host or cells: RHOGDI1: E. coli; GerGer-RAC1: insect cells (TNAO38)
# T1 sequence (P52565 1-204): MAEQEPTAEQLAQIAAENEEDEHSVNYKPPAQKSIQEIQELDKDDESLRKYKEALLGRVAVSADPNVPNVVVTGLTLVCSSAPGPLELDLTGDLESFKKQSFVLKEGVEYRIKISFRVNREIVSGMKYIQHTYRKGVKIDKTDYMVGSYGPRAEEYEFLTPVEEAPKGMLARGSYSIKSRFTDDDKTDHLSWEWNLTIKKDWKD
# Procedure: cilia were stained with an antibody against acetylated tubulin. SMO was marked with an anti-SMO antibody and DAPI was used to stain the nuclei. For quantification of cilia, at least 100 cilia per condition and biological replicate were analyzed for the intensity of anti-acetylated tubulin antibody staining. The results of one representative biological replicate are shown and each data point represents the intensity value of one single cilium. Statistical significance was evaluated using an unpaired t-test with a confidence interval of 95 % (p ≤ n.s.). […]
# Label-free quantification (LFQ) intensities were logarithmized (log2) and proteins, which were not three times quantified in at least one of the groups, were filtered off. […]
# Fluorescence polarization
# The binding of probe 10 to RHOGDI1-3 was confirmed by fluorescence polarization experiments. […] The change in fluorescence polarization was monitored at an excitation / emission wavelengths of 535 nm and 593 nm, respectively. […]
# To determine the effect of 7a on the binding of RHOGDI1 to non-prenylated RAC1-GDP, fluorescence polarization measurements were performed by titrating 1 µM TAMRA-GDP-bound RAC1 with increasing concentrations of RHOGDI1 in the presence and absence of 50 µM 7a in buffer containing 30 mM Tris-HCl, pH 7.5, 150 mM NaCl, 5 mM MgCl2, 1% DMSO. […]
structure (smiles),measurement,setting,value
COC(=O)C1(C(CC(=O)c2cccnc2)c2ccccc2)N=C(c2ccc(Br)cc2)C2C(=O)N(C)C(=O)C21 (centres unmarked) [7l],Expression of the alkaline phosphatase gene Alpl (in words),[1],inhibited the expression of the alkaline phosphatase gene
same,Ki,[2],~2200 nM
